The values that follow are results of earlier work, collected in patent publication US20140205688A1, “STIMULATING AGENT AND STIMULATING COMPOSITION” (priority 2011, published 2014).

The structures appear in SMILES notation.

This data set concerns humans. As to conditions: humans took in / absorbed the substance.

Consider `O=C1CN=C(c2ccccc2)c2cc([N+](=O)[O-])ccc2N1` [Nitrazepam], for which the “amplitude of CNV” value is “declined”.

Regarding `Cn1c(=O)c2c(ncn2C)n(C)c1=O` [caffeine], the “amplitude of CNV” value is reported as “increased”.
